One test addresses human DAT (Homo sapiens, UniProt Q01959). The protocol:
To obtain differing levels of DAT expression, cells were transiently transfected) with plasmids containing a DAT cDNA insert (hDAT), or alternatively, control irrelevant cDNA insert (Negative Control, NC). After 48-72 hrs. culture, dopamine transport was measured in the transiently transfected hDAT-cells by incubation for 5 hrs. in the presence of ^3H-labeled dopamine (Positive Control, PC).

The next test concerns Nurr1 deficient mice. The procedure: Rota rod performance measurements were made on a weekly basis during an 8 week treatment period.
MATERIALS AND METHODS: RotaRod performance measurements (time that balance was maintained on the rod) were performed (as in Study #1), each week during 8 weeks of treatment.

Another test deals with MPTP-lesioned mice. It is filed as in vivo, C57BL/6 mice. The protocol:
Experimental mice were lesioned with MPTP (i.e., 40 mg/kg, ip twice, 1 month).
METHODS: Rota-Rod performance measures the length of time each animal manages to maintain its balance on the rotating lucite rod. Prior to MPTP-esioning animals, the performance was conditioned in three training sessions. The general training and testing procedure was as follows: namely,
Animals were placed on a stationary rod for 30 sec to accustom the behavior and establish familiarity with the environment. During this time if an animal fell, it was placed back on the rod; Next, animals were conditioned (or tested) at a constant speed of 5 rpm for 90 sec.;
Any animal that failed a first test was re-tested two more times; Any animal that failed a third test at 5 rpm was removed from the experiment; Thirty-minutes (30 min) after the last 5 rpm trial, each animal was placed back on the rod the speed was increased to 10 rpm; The length of time that each animal was able to maintain balance on the rod was measured at the constant speed of 10 rpm, i.e., data collection.

For the next test, the system named is 6-OHDA-lesioned rats. An excerpt: The nigral dopamine depletion is induced by using unilateral injections of 6-OHDA directly into the nigrostriatal system (AP: −4.4 mm, ML: 1.1 mm, DV: 7.5 mm, AP: −4.0 mm, ML: 0.8 mm, DV: 7.8 mm).
METHODS for STUDY #2: The Rota-Count 8 unit is an eight channel rotational meter. The system utilizes a digital rotary encoder and each encoder is mounted in a small bowl with a cable attachment; thereby, rotations of rats are automatically recorded. 6-OHDA in 0.9% NaCl at a concentration of 0.2% (w/v)-8 μl injected into the nigrostriatum. To control for injection failures in the injections, only 6-OHDA-lesioned rats that rotated more than 5 cycles/min at 7 days post-injection were selected for experimental use.

Test [1] concerns Tyrosine hydroxylase (TH). The settings on record: 20 mg/kg for two months vs NaCl.

Entries after “also recorded” stand apart in the source; their conditions may differ. Bounds are passed on as bounds.

human DAT, sequence (Q01959 whole entry): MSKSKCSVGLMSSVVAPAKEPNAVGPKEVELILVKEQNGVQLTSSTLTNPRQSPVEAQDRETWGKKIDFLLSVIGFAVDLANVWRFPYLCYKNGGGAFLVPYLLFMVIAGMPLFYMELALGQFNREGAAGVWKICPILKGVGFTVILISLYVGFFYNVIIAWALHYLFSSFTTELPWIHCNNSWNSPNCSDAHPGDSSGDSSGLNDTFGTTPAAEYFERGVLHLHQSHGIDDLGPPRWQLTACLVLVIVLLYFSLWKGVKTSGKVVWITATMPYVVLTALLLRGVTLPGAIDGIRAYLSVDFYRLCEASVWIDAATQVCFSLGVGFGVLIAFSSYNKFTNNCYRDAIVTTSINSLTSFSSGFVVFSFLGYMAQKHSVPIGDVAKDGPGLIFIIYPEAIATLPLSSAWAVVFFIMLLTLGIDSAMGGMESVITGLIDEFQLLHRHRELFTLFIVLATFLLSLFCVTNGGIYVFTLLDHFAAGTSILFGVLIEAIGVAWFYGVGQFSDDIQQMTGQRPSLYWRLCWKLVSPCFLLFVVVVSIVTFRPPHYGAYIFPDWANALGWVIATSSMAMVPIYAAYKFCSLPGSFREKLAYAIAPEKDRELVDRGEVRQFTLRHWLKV

For the molecule Dopamine gluconamide [Compound #1], the “competition of 3H-dopamine uptake” value on human DAT (hDAT-transfected cells, 5 hrs. incubation) is given as “Competition of ^3H-dopamine uptake was observed”. The “transportability at DAT” value at human DAT (summary of EXAMPLE 12) is “transportable at DAT”. The “stability of Rota Rod performance during treatment” value with Nurr1 deficient mice (20 mg/kg twice daily, 8 weeks) is “remained stable during the course of the 8-week treatment study”. Further, in the test with Nurr1 deficient mice (20 mg/kg twice daily, within two weeks of treatment), the “improvement of Rota Rod performance relative to saline treated controls” value is given as “about 2 fold”. In addition, the “Rota-Rod time compared with pretreatment performance times” value in the test with Nurr1 deficient mice (20 mg/kg, p<0.05) was “significant increase of Rota-Rod time within two weeks of treatment”. Further, the “time to return of Rota-Rod performance to pre-treatment values after cessation of treatment” value in the test on Nurr1 deficient mice (after 8 weeks of treatment) is on record as at most 2 weeks. Further, in the test on Nurr1 deficient mice (after 8 weeks of treatment, p<0.05), the “Rota-Rod performance after cessation of treatment (washout)” value is listed as “degraded significantly within one week”. Besides, in the test with MPTP-lesioned mice (mouse, in vivo), the “Rota-Rod performance times relative to NaCl-treated controls” value is listed as 8-9 fold and the “onset of significant improvement in Rota-rod performance times” value is given as “about the third week of treatment; also recorded: about the second week”. Further, the “locomotor activity after two months of treatment” value with MPTP-lesioned mice (mouse, in vivo, ip, 20 mg/kg) is “recovered locomotor activity”. Moreover, the apomorphine-induced rotation result in the test with 6-OHDA-lesioned rats (20 mg/kg, 4 weeks, p<0.05) is listed as “significantly decreased apomorphine-induced rotation”. The “agonist effects (rotation triggered by the compound itself)” value with 6-OHDA-lesioned rats (80 mg/kg or 200 mg/kg) is on record as “did not trigger visible effects”. Also, in test [1], the “amount of TH per neuron” value is given as “qualitatively much higher”. Also, the “increase in number of neurons staining positively for TH” value in test [1] (not statistically significant, n=6) was 20-30%.
As to `CN1CC=C(c2ccccc2)CC1` [MPTP, 1,2,3,6-methyl-phenyl-tetrahydropyridine, reference compound], the “reduction of Rota-Rod mean time” value in the test with MPTP-lesioned mice (after lesioning, 40 mg/kg ip twice) is given as “over 65%”.
